Experimental data as given in patent US7691382B2, “Antiviral polypeptides comprising tandem repeats of APOE 141-149 and variants thereof” (priority 2003, dated 2010).
pIC50: −log10 of the molar value. Peptide text beside a SMILES is read from it.

Tested on: HSV1
Format: cell-based, Human herpes simplex virus type 1
Description: African Green Monkey Kidney (Vero) cells were maintained in Eagle's minimum essential medium with Earle's salt (EMEM) and supplemented with 10% foetal calf serum (heat-inactivated), 4 mM L-glutamine, and 1% (v/v) nonessential amino acids, plus penicillin and streptomycin (100 IU/mg and […], respectively) (maintenance medium referred to as 10% EMEM). The cells were incubated at 37° C. in a humidified atmosphere of air with 5% CO2.
On harvesting, monolayers were washed in phosphate-buffered saline (PBS), and dislodged by incubating with trypsin in PBS for 30 min, before inactivating trypsin by addition of an equal volume of 10% EMEM and centrifuging at 500 g (5 min, 4° C.). Cell pellets were resuspended in 10% EMEM, prior to cell counting and seeding of 24-well plates. For antiviral assays, medium containing only 0.5% FCS was used (referred to as 0.5% EMEM).
Three separate passages of HSV1 virus were prepared by infecting Vero cells, and preparing semi-pure suspensions of virus from tissue culture supernatant and cell lysates, before freezing aliquots of virus at −85° C. Viral infectivity was assessed by carrying out plaque assays on serial dilutions of thawed aliquots (expressed in pfu/ml).
Peptides were obtained in lyophilised form from a commercial supplier (AltaBioscience, University of Birmingham or Advanced Biomedical), and were produced at 5 micromole scale. N-terminals were protected by addition of an acetyl group, and the C-terminals were protected by addition of an amide group.
Small quantities of peptide were weighed in sterile Eppendorf tubes, before addition of sufficient 0.5% EMEM to produce a 1.5 mM stock solution, which was frozen at −20° C. in aliquots.
Vero cells were seeded at 125,000 cells per well in 10% EMEM, and were incubated overnight resulting in confluent monolayers. […] Virus stocks (p3) were thawed, and diluted in 0.5% EMEM such that there were around 100 pfu in 100 μl. Each 24-well plate was inoculated separately. Firstly 100 μl of virus stock was added to the peptide or control medium arranged on a 96-well plate. This was incubated at 37° C. for ten minutes before inoculation. Medium was removed from four wells of a 24-well plate containing confluent Vero, and the 200 μl inoculum added to the appropriate well. Once all wells were treated, the 24-well plate was incubated for a further 60-80 minutes. Finally the peptide-containing inoculum was removed, and 1 ml of 1% EMEM containing 1% carboxymethylcellulose was added to each well. Plates were incubated for a further 22 hours or in some experiments 40 hours, before removal of overlay, and addition of 10% formaldehyde in PBS. After a further one hour incubation, fixative was removed, monolayers washed several times with tap water, and stained with carbol fuchsin solubilised in water. After 30 minutes stain was removed, and plates washed several times with tap water, before being air dried. Plaques were counted using an Olympus IX70 Inverting Microscope, and antiviral effect expressed as a percentage of the control value for each peptide concentration. The IC50 was calculated from plots of inhibitory effect against peptide concentration.

Compound | pIC50 | efficacy for reducing HSV1 infectivity (in words) (Examples 2 and 3)
CC[C@H](C)[C@H](NC(=O)[C@H](CO)NC(=O)[C@H](CO)NC(=O)[C@H](C)NC(=O)[C@H](CCCNC(=N)N)NC(=O)[C@H](CO)NC(=O)[C@H](Cc1ccccc1)NC(=O)[C@H](Cc1c[nH]cn1)NC(=O)[C@H](CC(=O)O)NC(=O)[C@H](CCC(N)=O)NC(=O)[C@H](CCSC)NC(=O)[C@@H](NC(=O)[C@H](CC(=O)O)NC(=O)[C@H](CC(C)C)NC(=O)[C@H](CCSC)NC(=O)[C@H](Cc1c[nH]cn1)NC(C)=O)C(C)C)C(=O)N[C@H](C(=O)N[C@@H](CC(=O)O)C(=O)N[C@@H](CCC(=O)O)C(=O)N[C@@H](CC(C)C)C(N)=O)[C@@H](C)CC [GIN 29] (Ac-HMLDVMQDHFSRASSIIDEL-NH2) | 4.41 | 
CSCC[C@H](NC(=O)[C@H](CCSC)NC(=O)[C@H](CCCNC(=N)N)NC(=O)[C@H](CCCCN)NC(=O)[C@H](CCCNC(=N)N)NC(=O)[C@H](CCSC)NC(=O)[C@H](CCCCN)NC(=O)[C@H](CCCNC(=N)N)NC(=O)[C@H](CCSC)NC(=O)[C@H](CCSC)NC(=O)[C@H](CCSC)NC(=O)[C@H](CCCNC(=N)N)NC(=O)[C@H](CCCCN)NC(=O)[C@H](CCCNC(=N)N)NC(=O)[C@H](CCSC)NC(=O)[C@H](CCCCN)NC(=O)[C@H](CCCNC(=N)N)NC(=O)[C@H](CCSC)NC(C)=O)C(N)=O [GIN 40] (Ac-MRKMRKRMMMRKMRKRMM-NH2) | < 4.52 | 
CC(=O)N[C@@H](Cc1ccc(O)cc1)C(=O)N[C@@H](CCCNC(=N)N)C(=O)N[C@@H](CCCCN)C(=O)N[C@@H](Cc1ccc(O)cc1)C(=O)N[C@@H](CCCNC(=N)N)C(=O)N[C@@H](CCCCN)C(=O)N[C@@H](CCCNC(=N)N)C(=O)N[C@@H](Cc1ccc(O)cc1)C(=O)N[C@@H](Cc1ccc(O)cc1)C(=O)N[C@@H](Cc1ccc(O)cc1)C(=O)N[C@@H](CCCNC(=N)N)C(=O)N[C@@H](CCCCN)C(=O)N[C@@H](Cc1ccc(O)cc1)C(=O)N[C@@H](CCCNC(=N)N)C(=O)N[C@@H](CCCCN)C(=O)N[C@@H](CCCNC(=N)N)C(=O)N[C@@H](Cc1ccc(O)cc1)C(=O)N[C@@H](Cc1ccc(O)cc1)C(N)=O [GIN 41] (Ac-YRKYRKRYYYRKYRKRYY-NH2) |  | also had efficacy
CC(=O)N[C@@H](CC(C)C)C(=O)N[C@@H](CCCNC(=N)N)C(=O)N[C@@H](CCC(N)=O)C(=O)N[C@@H](CC(C)C)C(=O)N[C@@H](CCCNC(=N)N)C(=O)N[C@@H](CCC(N)=O)C(=O)N[C@@H](CCCNC(=N)N)C(=O)N[C@@H](CC(C)C)C(=O)N[C@@H](CC(C)C)C(=O)N[C@@H](CC(C)C)C(=O)N[C@@H](CCCNC(=N)N)C(=O)N[C@@H](CCC(N)=O)C(=O)N[C@@H](CC(C)C)C(=O)N[C@@H](CCCNC(=N)N)C(=O)N[C@@H](CCC(N)=O)C(=O)N[C@@H](CCCNC(=N)N)C(=O)N[C@@H](CC(C)C)C(=O)N[C@@H](CC(C)C)C(N)=O [GIN 44] (Ac-LRQLRQRLLLRQLRQRLL-NH2) | 4.40 | 
CC(=O)N[C@@H](Cc1ccccc1)C(=O)N[C@@H](CCCNC(=N)N)C(=O)N[C@@H](CCCCN)C(=O)N[C@@H](Cc1ccccc1)C(=O)N[C@@H](CCCNC(=N)N)C(=O)N[C@@H](CCCCN)C(=O)N[C@@H](CCCNC(=N)N)C(=O)N[C@@H](Cc1ccccc1)C(=O)N[C@@H](Cc1ccccc1)C(=O)N[C@@H](Cc1ccccc1)C(=O)N[C@@H](CCCNC(=N)N)C(=O)N[C@@H](CCCCN)C(=O)N[C@@H](Cc1ccccc1)C(=O)N[C@@H](CCCNC(=N)N)C(=O)N[C@@H](CCCCN)C(=O)N[C@@H](CCCNC(=N)N)C(=O)N[C@@H](Cc1ccccc1)C(=O)N[C@@H](Cc1ccccc1)C(N)=O [MU 7] (Ac-FRKFRKRFFFRKFRKRFF-NH2) | < 4.52 | 

The next lines start with results.

pIC50 | Compound | efficacy for reducing HSV1 infectivity (in words) (Examples 2 and 3)
< 4.52 | CC[C@H](C)[C@H](NC(=O)[C@@H](NC(=O)[C@H](CCCNC(=N)N)NC(=O)[C@H](CCCCN)NC(=O)[C@H](CCCNC(=N)N)NC(=O)[C@@H](NC(=O)[C@H](CCCCN)NC(=O)[C@H](CCCNC(=N)N)NC(=O)[C@@H](NC(=O)[C@@H](NC(=O)[C@@H](NC(=O)[C@H](CCCNC(=N)N)NC(=O)[C@H](CCCCN)NC(=O)[C@H](CCCNC(=N)N)NC(=O)[C@@H](NC(=O)[C@H](CCCCN)NC(=O)[C@H](CCCNC(=N)N)NC(=O)[C@@H](NC(C)=O)[C@@H](C)CC)[C@@H](C)CC)[C@@H](C)CC)[C@@H](C)CC)[C@@H](C)CC)[C@@H](C)CC)[C@@H](C)CC)C(N)=O [MU 8] (Ac-IRKIRKRIIIRKIRKRII-NH2) | 
< 4.52 | CC(=O)N[C@@H](CCC(N)=O)C(=O)N[C@@H](CCCNC(=N)N)C(=O)N[C@@H](CCCCN)C(=O)N[C@@H](CCC(N)=O)C(=O)N[C@@H](CCCNC(=N)N)C(=O)N[C@@H](CCCCN)C(=O)N[C@@H](CCCNC(=N)N)C(=O)N[C@@H](CCC(N)=O)C(=O)N[C@@H](CCC(N)=O)C(=O)N[C@@H](CCC(N)=O)C(=O)N[C@@H](CCCNC(=N)N)C(=O)N[C@@H](CCCCN)C(=O)N[C@@H](CCC(N)=O)C(=O)N[C@@H](CCCNC(=N)N)C(=O)N[C@@H](CCCCN)C(=O)N[C@@H](CCCNC(=N)N)C(=O)N[C@@H](CCC(N)=O)C(=O)N[C@@H](CCC(N)=O)C(N)=O [MU 9] (Ac-QRKQRKRQQQRKQRKRQQ-NH2) | 
4.56 | CC(=O)N[C@@H](CC(N)=O)C(=O)N[C@@H](CCCNC(=N)N)C(=O)N[C@@H](CCCCN)C(=O)N[C@@H](CC(N)=O)C(=O)N[C@@H](CCCNC(=N)N)C(=O)N[C@@H](CCCCN)C(=O)N[C@@H](CCCNC(=N)N)C(=O)N[C@@H](CC(N)=O)C(=O)N[C@@H](CC(N)=O)C(=O)N[C@@H](CC(N)=O)C(=O)N[C@@H](CCCNC(=N)N)C(=O)N[C@@H](CCCCN)C(=O)N[C@@H](CC(N)=O)C(=O)N[C@@H](CCCNC(=N)N)C(=O)N[C@@H](CCCCN)C(=O)N[C@@H](CCCNC(=N)N)C(=O)N[C@@H](CC(N)=O)C(=O)N[C@@H](CC(N)=O)C(N)=O [MU 11] (Ac-NRKNRKRNNNRKNRKRNN-NH2) | 
5.12 | CC(=O)N[C@@H](CCCNC(=N)N)C(=O)N[C@@H](CCCNC(=N)N)C(=O)N[C@@H](CCCCN)C(=O)N[C@@H](CCCNC(=N)N)C(=O)N[C@@H](CCCNC(=N)N)C(=O)N[C@@H](CCCCN)C(=O)N[C@@H](CCCNC(=N)N)C(=O)N[C@@H](CCCNC(=N)N)C(=O)N[C@@H](CCCNC(=N)N)C(=O)N[C@@H](CCCNC(=N)N)C(=O)N[C@@H](CCCNC(=N)N)C(=O)N[C@@H](CCCCN)C(=O)N[C@@H](CCCNC(=N)N)C(=O)N[C@@H](CCCNC(=N)N)C(=O)N[C@@H](CCCCN)C(=O)N[C@@H](CCCNC(=N)N)C(=O)N[C@@H](CCCNC(=N)N)C(=O)N[C@@H](CCCNC(=N)N)C(N)=O [MU 16] (Ac-RRKRRKRRRRRKRRKRRR-NH2) | 
5.12 | CC(=O)N[C@@H](CCCCN)C(=O)N[C@@H](CCCNC(=N)N)C(=O)N[C@@H](CCCCN)C(=O)N[C@@H](CCCCN)C(=O)N[C@@H](CCCNC(=N)N)C(=O)N[C@@H](CCCCN)C(=O)N[C@@H](CCCNC(=N)N)C(=O)N[C@@H](CCCCN)C(=O)N[C@@H](CCCCN)C(=O)N[C@@H](CCCCN)C(=O)N[C@@H](CCCNC(=N)N)C(=O)N[C@@H](CCCCN)C(=O)N[C@@H](CCCCN)C(=O)N[C@@H](CCCNC(=N)N)C(=O)N[C@@H](CCCCN)C(=O)N[C@@H](CCCNC(=N)N)C(=O)N[C@@H](CCCCN)C(=O)N[C@@H](CCCCN)C(N)=O [MU 18] (Ac-KRKKRKRKKKRKKRKRKK-NH2) | 
4.40 | CC(=O)N[C@@H](CC(C)C)C(=O)N[C@@H](CC(C)C)C(=O)N[C@@H](CCCNC(=N)N)C(=O)N[C@@H](CCCCN)C(=O)N[C@@H](CCCNC(=N)N)C(=O)N[C@@H](CC(C)C)C(=O)N[C@@H](CCCCN)C(=O)N[C@@H](CCCNC(=N)N)C(=O)N[C@@H](CC(C)C)C(=O)N[C@@H](CC(C)C)C(=O)N[C@@H](CC(C)C)C(=O)N[C@@H](CCCNC(=N)N)C(=O)N[C@@H](CCCCN)C(=O)N[C@@H](CCCNC(=N)N)C(=O)N[C@@H](CC(C)C)C(=O)N[C@@H](CCCCN)C(=O)N[C@@H](CCCNC(=N)N)C(=O)N[C@@H](CC(C)C)C(N)=O [MU 24] (Ac-LLRKRLKRLLLRKRLKRL-NH2) | 
< 4.52 | CC(=O)N[C@@H](CC(C)C)C(=O)N[C@@H](CCCNC(=N)N)C(=O)N[C@@H](CCCNC(=N)N)C(=O)N[C@@H](CC(C)C)C(=O)N[C@@H](CCCNC(=N)N)C(=O)N[C@@H](CCCNC(=N)N)C(=O)N[C@@H](CCCNC(=N)N)C(=O)N[C@@H](CC(C)C)C(=O)N[C@@H](CC(C)C)C(=O)N[C@@H](CC(C)C)C(=O)N[C@@H](CCCNC(=N)N)C(=O)N[C@@H](CCCNC(=N)N)C(=O)N[C@@H](CC(C)C)C(=O)N[C@@H](CCCNC(=N)N)C(=O)N[C@@H](CCCNC(=N)N)C(=O)N[C@@H](CCCNC(=N)N)C(=O)N[C@@H](CC(C)C)C(=O)N[C@@H](CC(C)C)C(N)=O [MU 38] (Ac-LRRLRRRLLLRRLRRRLL-NH2) | 
